In ChEMBL document CHEMBL1126942, “Synthesis and antibacterial activity of a new series of tetracyclic pyridone carboxylic acids” (J Med Chem, 1993):
≈ marks a conversion by molar mass, not a printed value.

Key:
Format in all cases: functional
Escherichia coli [1] = test: Tested in vitro for antibacterial activity against Escherichia coli (KC-14)
Escherichia coli [2] = test: Tested for inhibitory activity against DNA gyrase supercoiling in Escherichia coli (KL-16)
Escherichia coli [3] = test: Tested in vitro for antibacterial activity agains Escherichia coli (NIHJ JC-2)
Enterococcus faecalis = test: Tested in vitro for antibacterial activity agains Enterococcus faecalis (IID 682)
Pseudomonas aeruginosa [4] = test: Tested in vitro for antibacterial activity against Pseudomonas aeruginosa (E-2)
Pseudomonas aeruginosa [5] = test: Tested in vitro for antibacterial activity against Pseudomonas aeruginosa (IFO 3445)
[6] = system: Staphylococcus epidermidis; test: Tested in vitro for antibacterial activity against Staphylococcus epidermidis (IAM 1296)
Staphylococcus aureus [7] = test: Tested in vitro for antibacterial activity against Staphylococcus aureus (FDA 209P JC-1)
Staphylococcus aureus [8] = test: Tested in vitro for antibacterial activity against Staphylococcus aureus (IID 803)
Klebsiella pneumoniae = test: Tested in vitro for antibacterial activity against Klebsiella pneumoniae (B54)

| SMILES | MIC (Escherichia coli [1]) [µg/mL] | IC50 (Escherichia coli [2]) [µg/mL] | MIC (Escherichia coli [3]) [µg/mL] | MIC (Enterococcus faecalis) [µg/mL] | MIC (Pseudomonas aeruginosa [4]) [µg/mL] | MIC (Pseudomonas aeruginosa [5]) [µg/mL] | MIC [6] [µg/mL] | MIC (Staphylococcus aureus [7]) [µg/mL] | MIC (Staphylococcus aureus [8]) [µg/mL] | MIC (Klebsiella pneumoniae) [µg/mL] |
| --- | --- | --- | --- | --- | --- | --- | --- | --- | --- | --- |
| CN1CCN(c2c(F)cc3c(=O)c(C(=O)O)c4n5c3c2N(C)CC5CS4)CC1.Cl (stereo unspecified) | 0.78 | 0.53 | 0.78 | 1.56 | 6.25 | 6.25 | 0.78 | 0.78 | 0.39 | 0.39 |
| CN1CCN(c2c(F)cc3c(=O)c(C(=O)O)c4n5c3c2OCC5CS4)CC1.Cl (stereo unspecified) | 0.025 | 0.33 | 0.05 | 0.78 | 1.56 | 1.56 | 0.2 | 0.1 | 0.1 | 0.05 |

Other lines, results leading:

| MIC (Escherichia coli [1]) [µg/mL] | IC50 (Escherichia coli [2]) [µg/mL] | MIC (Escherichia coli [3]) [µg/mL] | MIC (Enterococcus faecalis) [µg/mL] | MIC (Pseudomonas aeruginosa [4]) [µg/mL] | MIC (Pseudomonas aeruginosa [5]) [µg/mL] | MIC [6] [µg/mL] | MIC (Staphylococcus aureus [7]) [µg/mL] | MIC (Staphylococcus aureus [8]) [µg/mL] | MIC (Klebsiella pneumoniae) [µg/mL] | SMILES |
| --- | --- | --- | --- | --- | --- | --- | --- | --- | --- | --- |
| 0.39 | 0.67 | 0.78 | 3.13 | 3.13 | 6.25 | 3.13 | 0.78 | 0.78 | 0.78 | CN1CCN(c2c(F)cc3c(=O)c(C(=O)O)c4n5c3c2C(=O)CC5CS4)CC1.Cl (stereo unspecified) |
| 1.56 | 2.61 | 1.56 | 6.25 | 60 | 50 | 6.25 | 1.56 | 3.13 | 1.56 | CN1CCN(c2c(F)cc3c(=O)c(C(=O)O)c4n5c3c2SCC5CO4)CC1.Cl (stereo unspecified) |
| – | 0.53 (≈ 1.47 µM) | – | – | – | – | – | – | – | – | CC1COc2c(N3CCN(C)CC3)c(F)cc3c(=O)c(C(=O)O)cn1c23 (stereo unspecified) [OFLOXACIN] |
